The nature of the data set: Volatile materials test in ventilating oven. The class given is physicochemical. Particulars: after 2 hours at 141° F. (=60.5° C.) in a ventilating oven. On the procedure: The moisture content of raw material Celite 500 is 3.7 weight percent. So, the weight of raw material Celite 500 is close to the dry weight of Celite 500. According to the product specifications of Supragil MNS/90, Soprophor S/40-P, and Supragil WP, the moisture contents of these components are no higher than 2 weight percent. Also, samples of chlorpyrifos technical were tested for volatile materials in a ventilating oven. The weight loss after 2 hours at 141° F. (=60.5° C.) was only 0.6 weight percent. […] Therefore, the dry spreadable granular product as manufactured above contains approximately 2.0 weight percent chlorpyrifos.

Each structure is given as a SMILES string.

In the case of `CCOP(=S)(OCC)Oc1nc(Cl)c(Cl)cc1Cl` [chlorpyrifos technical, Chlorpyrifos], the “weight loss (volatile materials)” value was 0.6 weight percent.

The values above are taken from US6375969B1, “Broadcast carriers for pesticides and their use” (priority 1996, dated 2002).
